Molecular target: Human GPR35 (Homo sapiens, UniProt Q9HC97, S294R)
Assay: Alternative Beta-Arrestin Assay (JumpIn 294R Tango U2OS cells, LiveBLAzer-FRET B/G)
Format: cell-based
Details: Human GPR35 expressing JumpIn 294R Tango U2OS cells, 5 hours treatment
Procedure, shortened: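 U2OS Tango cells expressing human GPR35 S294R, plated overnight, exposed to serially diluted compounds for 5 hours. β-lactamase reporter read with LiveBLAzer-FRET B/G (CCF4-AM) after 2 h; EC50 from four-parameter fit, zaprinast as positive control.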

Chain of Human GPR35 (Q9HC97 whole entry S294R): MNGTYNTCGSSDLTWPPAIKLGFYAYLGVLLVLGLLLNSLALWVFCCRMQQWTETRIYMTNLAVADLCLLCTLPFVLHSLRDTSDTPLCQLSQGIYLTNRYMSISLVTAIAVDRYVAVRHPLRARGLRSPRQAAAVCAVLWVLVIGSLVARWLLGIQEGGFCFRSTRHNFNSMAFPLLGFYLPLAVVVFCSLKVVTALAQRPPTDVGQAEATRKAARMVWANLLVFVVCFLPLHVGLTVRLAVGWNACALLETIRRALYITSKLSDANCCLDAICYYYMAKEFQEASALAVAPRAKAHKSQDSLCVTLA

Row | SMILES | EC50 [µM]
1 | CCOc1cc(-c2cccc(NCC(=O)O)c2)ccc1-c1nc2[nH]nnc2c(=O)[nH]1 [Compound 214, (3′-Ethoxy-4′-(7-oxo-6,7-dihydro-3H-[1,2,3]triazolo[4,5-d]pyrimidin-5-yl)-[1,1′-biphenyl]-3-yl)glycine] | ≤ 10
2 | CCOc1cc(-c2cccc(CC(C)C(=O)OC)c2)ccc1-c1nc2[nH]nnc2c(=O)[nH]1 (stereo not shown) [Compound 310, methyl 3-(3′-ethoxy-4′-(7-oxo-6,7-dihydro-3H-[1,2,3]triazolo[4,5-d]pyrimidin-5-yl)-[1,1′-biphenyl]-3-yl)-2-methylpropanoate] | ≤ 10
3 | CCOc1cc(-c2ccc(NC(C)=O)c(C(=O)O)c2)ccc1-c1nc2[nH]nnc2c(=O)[nH]1 [Compound 184, 4-acetamido-3′-ethoxy-4′-(7-oxo-6,7-dihydro-3H-[1,2,3]triazolo[4,5-d]pyrimidin-5-yl)-[1,1′-biphenyl]-3-carboxylic acid] | ≤ 10
4 | CCOc1cc(-c2cccc(O[C@@H](CC)C(=O)O)c2)ccc1-c1nc2[nH]nnc2c(=O)[nH]1 (single isomer, unassigned) [Compound 254] | ≤ 10
5 | CCCNc1cc(-c2nc3[nH]nnc3c(=O)[nH]2)ccc1-c1ccc(C(=O)O)cc1 [Compound 291, 4′-(7-oxo-6,7-dihydro-3H-[1,2,3]triazolo[4,5-d]pyrimidin-5-yl)-2′-(propylamino)-[1,1′-biphenyl]-4-carboxylic acid] | ≤ 10
6 | O=C(O)c1ccc(-c2ccc(-c3nc4[nH]nnc4c(=O)[nH]3)cc2[N+](=O)[O-])cc1 [Compound 286, 2′-nitro-4′-(7-oxo-6,7-dihydro-3H-[1,2,3]triazolo[4,5-d]pyrimidin-5-yl)-[1,1′-biphenyl]-4-carboxylic acid] | ≤ 10
7 | CCOc1cc(-c2cccc(CCC(=O)O)c2)ccc1-c1nc2[nH]nnc2c(=O)[nH]1 [Compound 234, 3-(3′-ethoxy-4′-(7-oxo-6,7-dihydro-3H-[1,2,3]triazolo[4,5-d]pyrimidin-5-yl)-[1,1′-biphenyl]-3-yl)propanoic acid] | ≤ 10
8 | CCOc1cc(-c2cccc(CC(CC)C(=O)O)c2)ccc1-c1nc2[nH]nnc2c(=O)[nH]1 (stereo not shown) [Compound 239, 2-((3′-ethoxy-4′-(7-oxo-6,7-dihydro-3H-[1,2,3]triazolo[4,5-d]pyrimidin-5-yl)-[1,1′-biphenyl]-3-yl)methyl)butanoic acid] | ≤ 10
9 | CCOc1cc(-c2ccc(C(=O)O)c(OCC(=O)O)c2)ccc1-c1nc2[nH]nnc2c(=O)[nH]1 [Compound 220, 3-(Carboxymethoxy)-3′-ethoxy-4′-(7-oxo-6,7-dihydro-3H-[1,2,3]triazolo[4,5-d]pyrimidin-5-yl)-[1,1′-biphenyl]-4-carboxylic acid] | ≤ 10
10 | CCNc1cc(-c2nc3[nH]nnc3c(=O)[nH]2)ccc1-c1ccc(C(=O)O)cc1 [Compound 292, 2′-(ethylamino)-4′-(7-oxo-6,7-dihydro-3H-[1,2,3]triazolo[4,5-d]pyrimidin-5-yl)-[1,1′-biphenyl]-4-carboxylic acid] | ≤ 10
11 | CCOc1cc(-c2cccc(C[C@H](O)C(=O)O)c2)ccc1-c1nc2[nH]nnc2c(=O)[nH]1 [Compound 282, (S)-3-(3′-ethoxy-4′-(7-oxo-6,7-dihydro-3H-[1,2,3]triazolo[4,5-d]pyrimidin-5-yl)-[1,1′-biphenyl]-3-yl)-2-hydroxypropanoic acid] | ≤ 10
12 | CCOc1cc(-c2cccc(/C=C(/C)C(=O)O)c2)ccc1-c1nc2[nH]nnc2c(=O)[nH]1 (single isomer, unassigned) [Compound 236, (Z)-3-(3′-ethoxy-4′-(7-oxo-6,7-dihydro-3H-[1,2,3]triazolo[4,5-d]pyrimidin-5-yl)-[1,1′-biphenyl]-3-yl)-2-methylacrylic acid] | ≤ 10
13 | CCOc1cc(-c2ccc(C(=O)O)c(N)c2)ccc1-c1nc2[nH]nnc2c(=O)[nH]1 [Compound 204, 3-Amino-3′-ethoxy-4′-(7-oxo-6,7-dihydro-3H-[1,2,3]triazolo[4,5-d]pyrimidin-5-yl)-[1,1′-biphenyl]-4-carboxylic acid] | ≤ 10
14 | CCOc1cc(-c2cc(F)cc(O[C@H](C)C(=O)O)c2)ccc1-c1nc2[nH]nnc2c(=O)[nH]1 (single isomer, unassigned) [Compound 262] | ≤ 10
15 | CCCC(Oc1cccc(-c2ccc(-c3nc4[nH]nnc4c(=O)[nH]3)c(OCC)c2)c1)C(=O)O (stereo not shown) [Compound 248, 2-((3′-ethoxy-4′-(7-oxo-6,7-dihydro-3H-[1,2,3]triazolo[4,5-d]pyrimidin-5-yl)-[1,1′-biphenyl]-3-yl)oxy)pentanoic acid] | ≤ 10
16 | CCOc1cc(-c2cccc(OC(C)C(=O)O)c2)ccc1-c1nc2[nH]nnc2c(=O)[nH]1 (racemic) [Compound 212, (±)-2-((3′-Ethoxy-4′-(7-oxo-6,7-dihydro-3H-[1,2,3]triazolo[4,5-d]pyrimidin-5-yl)-[1,1′-biphenyl]-3-yl)oxy)propanoic acid] | ≤ 10

Now from value to compound:

Row | EC50 [µM] | SMILES
17 | ≤ 10 | CCOc1cc(-c2cccc([C@@H]3C[C@@H]3C(=O)O)c2)ccc1-c1nc2[nH]nnc2c(=O)[nH]1 (racemic) [Compound 306, rac-cis-2-(3′-ethoxy-4′-(7-oxo-6,7-dihydro-3H-[1,2,3]triazolo[4,5-d]pyrimidin-5-yl)-[1,1′-biphenyl]-3-yl)cyclopropane-1-carboxylic acid]
18 | ≤ 10 | CCOc1cc(-c2ccc(C(=O)O)c(F)c2)ccc1-c1nc2[nH]nnc2c(=O)[nH]1 [Compound 205, 3′-Ethoxy-3-fluoro-4′-(7-oxo-6,7-dihydro-3H-[1,2,3]triazolo[4,5-d]pyrimidin-5-yl)-[1,1′-biphenyl]-4-carboxylic acid]
19 | ≤ 10 | CCOc1cc(-c2ccc(F)c(O[C@@H](C)C(=O)O)c2)ccc1-c1nc2[nH]nnc2c(=O)[nH]1 [Compound 265, (S)-2-((3′-ethoxy-4-fluoro-4′-(7-oxo-6,7-dihydro-3H-[1,2,3]triazolo[4,5-d]pyrimidin-5-yl)-[1,1′-biphenyl]-3-yl)oxy)propanoic acid]
20 | ≤ 10 | O=C(O)c1ccc(-c2ccc(-c3nc4[nH]nnc4c(=O)[nH]3)c(OC3CCCC3)c2)cn1 [Compound 233, 5-(3-(Cyclopentyloxy)-4-(7-oxo-6,7-dihydro-3H-[1,2,3]triazolo[4,5-d]pyrimidin-5-yl)phenyl)picolinic acid]
21 | ≤ 10 | CCOc1cc(-c2ccc(OC(C)C)c(/C=C(\C)C(=O)O)c2)ccc1-c1nc2[nH]nnc2c(=O)[nH]1 [Compound 301, (E)-3-(3′-ethoxy-4-isopropoxy-4′-(7-oxo-6,7-dihydro-3H-[1,2,3]triazolo[4,5-d]pyrimidin-5-yl)-[1,1′-biphenyl]-3-yl)-2-methylacrylic acid]
22 | ≤ 10 | CCOc1cc(-c2cc(F)c(O)c(F)c2)ccc1-c1nc2[nH]nnc2c(=O)[nH]1 [Compound 203, 5-(3-Ethoxy-3′,5′-difluoro-4′-hydroxy-[1,1′-biphenyl]-4-yl)-3,6-dihydro-7H-[1,2,3]triazolo[4,5-d]pyrimidin-7-one]
23 | ≤ 10 | CC(C)OC(=O)COc1cccc(-c2ccc(-c3nc4[nH]nnc4c(=O)[nH]3)c(OC3CCCC3)c2)c1 [Compound 271, isopropyl 2-((3′-(cyclopentyloxy)-4′-(7-oxo-6,7-dihydro-3H-[1,2,3]triazolo[4,5-d]pyrimidin-5-yl)-[1,1′-biphenyl]-3-yl)oxy)acetate]
24 | ≤ 10 | CCOc1cc(-c2cc(OCC(=O)OC)cc(C(=O)OC)c2)ccc1-c1nc2[nH]nnc2c(=O)[nH]1 [Compound 218, Methyl 3′-ethoxy-5-(2-methoxy-2-oxoethoxy)-4′-(7-oxo-6,7-dihydro-3H-[1,2,3]triazolo[4,5-d]pyrimidin-5-yl)-[1,1′-biphenyl]-3-carboxylate]
25 | ≤ 10 | CCOc1cc(-c2cccc(CC(=O)O)c2)ccc1-c1nc2[nH]nnc2c(=O)[nH]1 [Compound 295, 2-(3′-ethoxy-4′-(7-oxo-6,7-dihydro-3H-[1,2,3]triazolo[4,5-d]pyrimidin-5-yl)-[1,1′-biphenyl]-3-yl)acetic acid]
26 | ≤ 10 | CCOc1cc(-c2cccc(CC(C)C(=O)O)c2)ccc1-c1nc2[nH]nnc2c(=O)[nH]1 (single isomer, unassigned) [Compound 311, 3-(3′-ethoxy-4′-(7-oxo-6,7-dihydro-3H-[1,2,3]triazolo[4,5-d]pyrimidin-5-yl)-[1,1′-biphenyl]-3-yl)-2-methylpropanoic acid]
27 | ≤ 10 | CCOc1cc(-c2nc3[nH]nnc3c(=O)[nH]2)ccc1-c1cccc(OCC(=O)O)c1 [Compound 217, 2-((2′-Ethoxy-4′-(7-oxo-6,7-dihydro-3H-[1,2,3]triazolo[4,5-d]pyrimidin-5-yl)-[1,1′-biphenyl]-3-yl)oxy)acetic acid]
28 | ≤ 10 | CCOc1cc(-c2cccc(C[C@@H](OC)C(=O)O)c2)ccc1-c1nc2[nH]nnc2c(=O)[nH]1 [Compound 285, (R)-3-(3′-ethoxy-4′-(7-oxo-6,7-dihydro-3H-[1,2,3]triazolo[4,5-d]pyrimidin-5-yl)-[1,1′-biphenyl]-3-yl)-2-methoxypropanoic acid]
29 | ≤ 10 | O=C(O)c1ccc(-c2ccc(-c3nc4[nH]nnc4c(=O)[nH]3)c(OC3CCCC3)c2)nc1 [Compound 231, 6-(3-(Cyclopentyloxy)-4-(7-oxo-6,7-dihydro-3H-[1,2,3]triazolo[4,5-d]pyrimidin-5-yl)phenyl)nicotinic acid]
30 | ≤ 10 | CCOc1cc(-c2cccc(CC(C)C(=O)O)c2)ccc1-c1nc2[nH]nnc2c(=O)[nH]1 (stereo not shown) [Compound 238, 3-(3′-ethoxy-4′-(7-oxo-6,7-dihydro-3H-[1,2,3]triazolo[4,5-d]pyrimidin-5-yl)-[1,1′-biphenyl]-3-yl)-2-methylpropanoic acid]
31 | ≤ 10 | CCOc1cc(-c2cccc(OC(C(=O)O)C(C)C)c2)ccc1-c1nc2[nH]nnc2c(=O)[nH]1 (stereo not shown) [Compound 269, 2-((3′-ethoxy-4′-(7-oxo-6,7-dihydro-3H-[1,2,3]triazolo[4,5-d]pyrimidin-5-yl)-[1,1′-biphenyl]-3-yl)oxy)-3-methylbutanoic acid]
